Source: patent EP0584588A1, “Anti-ulcer composition containing imidazole derivative” (NIPPON CHEMIPHAR CO., LTD., priority 1992, dated 1994)
Where two headings read alike, the source gives them in different places.

Legend:
[1] = Stability in acidic conditions (Britten-Robinson buffer, HPLC); assay type: physicochemical
Procedure: The stability of the compound in acidic conditions was determined at 37 °C in Britten-Robinson buffer which had been previously adjusted to pH 3.0, 5.0 or 7.0. The compound was dissolved in this buffer by supersonic waves, and the filtered solution was monitored by high performance liquid chromatography (HPLC) (Tosoh TSK-gel ODS-120T 4.6-250mm, CH₃CN/10 mM phosphate buffer (pH 6.0), 1 ml/min., room temperature (25 °C), detector ultraviolet (UV) 240-250 nm). Half-lives (T1/2) were determined from linear regression of the concentration vs. time (h).

HCl-ethanol erosion = HCl-ethanol erosion model (cytoprotective action on gastrointestinal tract); assay type: in vivo, SD rats; conditions: Rattus norvegicus, 0.5 h; oral, 30 min. before HCl-ethanol mixture; total length of erosions; read-out: ED₅₀
Procedure: To a mixture of 2-[(2-Isobutylamino)benzylthio]imidazole (1 g) obtained in (i) above, chloroform (40 ml), and methanol (10 ml) was portionwise added under chilling with ice, m-chloroperbenzoic acid (equivalent molar amount). After completion of the reaction was confirmed using TLC, the reaction mixture was made alkaline by addition of saturated aqueous sodium hydrogen carbonate and extracted with chloroform. The chloroform portion was then treated successively with three portions of 10 ml of 0.1 N aqueous NaOH and one portion of 20 ml of 0.1 N aqueous NaOH to transfer the desired product into the aqueous portions. The obtained four aqueous portions were separately made ammonia-alkaline by addition of 20% aqueous […]. The precipitated crystals were collected, washed sufficiently with ether, and dried to give 0.6 g (yield: 56.5%) of the desired product as a white crystalline powder. […]
SD rats were fested for 24 hours. […] Length (mm) of each erosion was measured, and the total length (mm) of the erosions observed in one rat was calculated. […]

Row | half-life ([1]; britten-robinson buffer, pH 3) | half-life ([1]; britten-robinson buffer, pH 5) | half-life ([1]; britten-robinson buffer, pH 7) | half-life ([1]; pH 3.0, 37°C, Britten-Robinson buffer, read-out: (T1/2) (converted)) | half-life ([1]; pH 5.0, 37°C, Britten-Robinson buffer, read-out: (T1/2) (converted)) | half-life ([1]; pH 7.0, 37°C, Britten-Robinson buffer, read-out: (T1/2) (converted)) | Structure (SMILES) | ED50 (HCl-ethanol erosion)
1 | 1.8 min | 55.8 min | 3780 min |  |  |  | CC(C)CNc1ccccc1C[S+]([O-])c1ncc[nH]1 (stereo not shown) [Imidazole derivative A, 2-[(2-Isobutylamino)benzylsulfinyl]imidazole] | 3.6 mg/kg
2 |  |  |  | 3 min | 20.4 min | 1620 min | COc1ccc2[nH]c([S+]([O-])Cc3ncc(C)c(OC)c3C)nc2c1 (stereo not shown) [Omeprazole, reference compound] | 
